Assay results as given in US7777035B2, “Azaindazole compounds and methods of use” (Chemocentryx, Inc., priority 2005, dated 2010).
pIC50: −log10 of the molar value.

Target: T1, CCR1 (Homo sapiens, UniProt P32246)
T1 construct: host or cells: THP-1 cells or monocytes isolated from human buffy coats
T1 sequence (P32246 1-355): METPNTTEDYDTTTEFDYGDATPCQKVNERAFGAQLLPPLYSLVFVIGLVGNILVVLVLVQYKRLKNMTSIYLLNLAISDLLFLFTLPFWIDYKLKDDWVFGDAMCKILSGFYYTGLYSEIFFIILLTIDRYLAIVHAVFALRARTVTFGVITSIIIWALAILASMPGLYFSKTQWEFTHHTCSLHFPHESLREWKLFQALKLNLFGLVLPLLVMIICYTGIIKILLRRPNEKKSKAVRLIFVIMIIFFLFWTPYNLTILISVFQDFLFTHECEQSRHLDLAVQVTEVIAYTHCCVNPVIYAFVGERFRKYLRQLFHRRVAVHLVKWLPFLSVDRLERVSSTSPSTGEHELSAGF
Experiment: CCR1 chemotaxis assay or binding assay (activity given for either)
Settings: either the chemotaxis assay or binding assay; CCR1 expressing cells (THP-1 or human monocytes); read-out: Activity (IC50 class)
Protocol: Cells were grown under 5% CO2/95% air, 100% humidity at 37° C. and subcultured twice weekly at 1:5 (cells were cultured at a density range of 2×10^5 to 2×10^6 cells/mL) and harvested at 1×10^6 cells/mL. THP-1 cells express CCR1 and can be used in CCR1 binding and functional assays.
Monocytes were isolated from human buffy coats using the Miltenyi bead isolation system (Miltenyi, Auburn, Calif.). Briefly, following a Ficoll gradient separation to isolate peripheral blood mononuclear cells, cells were washed with PBS and the red blood cells lysed using standard procedures. Remaining cells were labeled with anti-CD14 antibodies coupled to magnetic beads (Miltenyi Biotech, Auburn, Calif.). Labeled cells were passed through AutoMACS (Miltenyi, Auburn, Calif.) and positive fraction collected. Monocytes express CCR1 and can be used in CCR1 binding and functional assays.
CCR1 expressing cells were centrifuged and resuspended in assay buffer (20 Mm HEPES pH 7.1, 140 Mm NaCl, 1 Mm CaCl2, 5 Mm MgCl2, and with 0.2% bovine serum albumin) to a concentration of 5×10^6 cells/mL for THP-1 cells and 5×10^5 for monocytes. Binding assays were set up as follows. […] Reactions were aspirated onto GF/B glass filters pre-soaked in 0.3% polyethyleneimine (PEI) solution, on a vacuum cell harvester (Packard Instruments; Meriden, Conn.). Scintillation fluid (40 μl; Microscint 20, Packard Instruments) was added to each well, the plates were sealed and radioactivity measured in a Topcount scintillation counter (Packard Instruments). Control wells containing either diluent only (for total counts) or excess MIP-1α or MIP-1β (1 μg/mL, for non-specific binding) were used to calculate the percent of total inhibition for compound. The computer program Prism from GraphPad, Inc. (San Diego, Calif.) was used to calculate IC50 values.
Chemotaxis assays were performed using 5 ┌ m pore polycarbonate, polyvinylpyrrolidone-coated filters in 96-well chemotaxis chambers (Neuroprobe; Gaithersburg, Md.) using chemotaxis buffer (Hank's balanced salt solution (HBSS) and 1% FBS). CCR1 chemokine ligands (i.e., MIP-1α, CCL15/Leukotactin; R&D Systems; Minneapolis, Minn.) are use to evaluate compound mediated inhibition of CCR1 Mediated migration. Other chemokines (i.e., SDF-1α; R&D Systems; Minneapolis, Minn.) are used as specificity controls. […] The chambers were incubated 1-2 hours at 37° C., and the number of cells in the lower chamber quantified either by direct cell counts in five high powered fields per well or by the CyQuant assay (Molecular Probes), a fluorescent dye method that measures nucleic acid content and microscopic observation.
THP-1 cells and monocytes lack other chemokine receptors that bind the same set of chemokine ligands as CCR1 (i.e., MIP-1α, MPIF-1, Leukotactin, etc.). Equal numbers of cells were added to each well in the plate. The cells were then incubated with radiolabeled MIP-1α. Unbound ligand was removed by washing the cells, and bound ligand was determined by quantifying radioactive counts. […] Percent inhibition was determined by the equation: […]
In the assay, the amount of compound was varied; while cell number and ligand concentration were held constant.
One of the primary functions of chemokines is their ability to mediate the migration of chemokine receptor-expressing cells, such as white blood cells. […] THP-1 Myelomonocytic leukemia cells, which resemble monocytes, as wells as freshly isolated monocytes, were used as targets for chemoattraction by CCR1 chemokine ligands (i.e., MIP-1α, CCL15/leukotactin). […] In this assay, the amount of compound was varied; while cell number and chemokine agonist concentrations were held constant. After the chemotaxis chambers were incubated 1-2 hours at 37° C., the responding cells in the lower chamber were quantified by labeling with the CyQuant assay (Molecular Probes), a fluorescent dye method that measures nucleic acid content, and by measuring with a Spectrafluor Plus (Tecan).

| pIC50 | SMILES |
| --- | --- |
| > 6.00 | COc1cc(N2CCN(C(=O)Cn3nc(S(C)(=O)=O)c4cccnc43)CC2)ccc1Cl [Compound 1.061] |
| > 6.00 | COc1cc(N2CCN(C(=O)Cn3nc(I)c4cccnc43)CC2)ccc1Cl [Compound 1.063] |
| > 6.00 | COc1cc(N2CCN(C(=O)Cn3nc(-c4ncc[nH]4)c4cccnc43)CC2)c(F)cc1Cl [Compound 1.068] |
| > 6.00 | COc1cc(N2CCN(C(=O)Cn3nc(-c4ncc[nH]4)c4cccnc43)C[C@H]2C)ccc1Cl [Compound 1.071] |
| > 6.00 | COc1cc(N2CCN(C(=O)Cn3nc(-c4ncc[nH]4)c4cccnc43)C[C@@H]2C)ccc1Cl [Compound 1.072] |
| 4.90 to 5.60 | O=C(Cn1nc(-c2ncc[nH]2)c2cccnc21)N1CCN(c2ccc(Cl)c(C(F)(F)F)c2)CC1 [Compound 1.078] |
| > 6.00 | COc1cc(N2CCN(C(=O)Cn3nc(-c4nccn4C)c4cccnc43)CC2)ccc1Cl [Compound 1.081] |

Second part, the compound before the results:

| SMILES | pIC50 |
| --- | --- |
| COc1cc(N2CCN(C(=O)Cn3ncc4ccc(NC(C)=O)nc43)CC2)ccc1Cl [Compound 1.060] | > 6.00 |
| COc1cc(N2CCN(C(=O)Cn3nc(CN)c4cccnc43)CC2)ccc1Cl [Compound 1.062] | 5.60 to 6.00 |
| COc1cc(N2CCN(C(=O)Cn3nc(I)c4cccnc43)[C@@H](C)C2)c(F)cc1Cl [Compound 1.064] | > 6.00 |
| CCOc1cc(N2CCN(C(=O)Cn3nc(-c4ncc[nH]4)c4cccnc43)CC2)c(F)cc1Cl [Compound 1.065] | > 6.00 |
| O=C(Cn1nc(-c2ncc[nH]2)c2cccnc21)N1CCN(c2cc(OCCF)c(Cl)cc2F)CC1 [Compound 1.066] | > 6.00 |
| CCOc1cc(N2CCN(C(=O)Cn3nc(-c4ncc[nH]4)c4cccnc43)CC2)ccc1Cl [Compound 1.067] | > 6.00 |
| COc1cc(N2CCN(C(=O)Cn3nc(-c4ncc[nH]4)c4cccnc43)[C@@H](C)C2)ccc1Cl [Compound 1.069] | > 6.00 |
| COc1cc(N2CCN(C(=O)Cn3nc(-c4ncc[nH]4)c4cccnc43)[C@@H](C)C2)c(F)cc1Cl [Compound 1.070] | > 6.00 |
| COc1cc(N2CCN(C(=O)Cn3nc(-c4ncc[nH]4)c4cccnc43)[C@H](C)C2)ccc1Cl [Compound 1.073] | > 6.00 |
| CCOc1cc(N2CCN(C(=O)Cn3nc(-c4ncc[nH]4)c4cccnc43)[C@@H](C)C2)ccc1Cl [Compound 1.074] | > 6.00 |
| O=C(Cn1nc(-c2ncc[nH]2)c2cccnc21)N1CCN(c2ccc(Cl)c(OCCF)c2)CC1 [Compound 1.075] | > 6.00 |
| C[C@H]1CN(c2ccc(Cl)c(OCCF)c2)CCN1C(=O)Cn1nc(-c2ncc[nH]2)c2cccnc21 [Compound 1.076] | > 6.00 |
| Cc1cc(N2CCN(C(=O)Cn3nc(-c4ncc[nH]4)c4cccnc43)CC2)ccc1Cl [Compound 1.077] | > 6.00 |
| O=C(Cn1nc(-c2ncc[nH]2)c2cccnc21)N1CCN(c2ccc(Cl)c(OC(F)(F)F)c2)CC1 [Compound 1.079] | > 6.00 |
| COc1cc(N2CCN(C(=O)Cn3nc(-c4ncc[nH]4)c4cccnc43)CC2)ccc1Cl [Compound 1.080] | > 6.00 |
